Assay results taken from patent US20240050512A1, “REDUCTION OF VIRAL INFECTIONS” (priority 2020, published 2024).

Biological target: T1, cathepsin L protease (Homo sapiens, UniProt P07711)
T1 construct: purchased BPS Bioscience
Assay: Protease inhibition, cell-free fluorogenic kit (BPS Bioscience)
Assay type: biochemical

T1 sequence (P07711 114-333): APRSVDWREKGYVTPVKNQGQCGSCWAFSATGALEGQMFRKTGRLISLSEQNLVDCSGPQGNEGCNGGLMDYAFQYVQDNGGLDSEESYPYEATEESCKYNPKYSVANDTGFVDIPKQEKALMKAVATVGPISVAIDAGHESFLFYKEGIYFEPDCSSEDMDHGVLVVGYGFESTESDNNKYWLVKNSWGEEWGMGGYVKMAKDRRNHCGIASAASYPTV

With `CC(C)C[C@H](NC(=O)[C@H]1O[C@@H]1C(=O)O)C(=O)NCCCCN=C(N)N` [Composition E-64, E-64] the Percentage inhibition (0.0001 μM) was −15.5% and the Percentage inhibition (0.001 μM) was −1.1 ^ %.
